Data set [1] deals with BxPC3 tumors. The experiment in a line: Protocol 93a: efficacy and biodistribution of CEA-PRIT, BxPC3 model. In kind it is in vivo, mice. The following applies: day 47; 30+30 μCi. Here is the method:
(§1) The bispecific antibodies were compared side-by-side in single- and double-cycle treatment regimens.
(§2) Groups A-G represent the treated mice that were followed up for assessment of efficacy, whereas groups H-L comprise mice that were sacrificed for biodistribution purposes 24 h after their last ^212Pb-DOTAM injection.
For protocol 93a, mice (age 7 weeks) were injected s.c. into the right flank with 5×10^6 BxPC3 cells (passage 33) in 100 μL RPMI/Matrigel. Twelve days after tumor cell injection, mice were sorted into experimental groups with an average tumor volume of 235 mm^3.
(§3) To minimize re-ingestion of radioactive urine/feces after treatment cycle 1, cages were changed 4 hours after ^212Pb-DOTAM administration, and then again at 24 h p.i. […]
(§4) The tumor development in the mice was followed through repeated calipering three times a week. […] The body weight of the animals was measured repeatedly in the same fashion. […]
(§5) Mice in groups H, J, and L were sacrificed and necropsied 24 hours after their first and only injection of ^212Pb-DOTAM; groups I and K were sacrificed and necropsied 24 hours after their second ^212Pb-DOTAM injection. […] Collected samples were weighed and measured for radioactivity, and the percent injected dose per gram of tissue (% ID/g) subsequently calculated, including corrections for decay and background.

The test system of data set [2] is BxPC3 tumors. In words: Protocol 146: ^212Pb-DOTAM biodistribution and absorbed dose estimation after PRIT. The data set is classed as in vivo, SCID mice. The following applies: for Mean absorbed dose, RBE = 1 / Mean absorbed dose, RBE = 5: 20 μCi pretargeted ^212Pb-DOTAM, tumor-bearing SCID. Here is the method:
Protocol 146 was designed to provide in vivo ^212Pb-DOTAM distribution data after PRIT for estimations of the absorbed radioactive dose to tumor and normal tissues, in SCID mice carrying s.c. BxPC3 tumors. The quenching of ^212Pb-DOTAM was performed using Ca (see example 34).
Pretargeting was performed by injection of CEA-DOTAM BsAb, followed 7 days later by the CA. After 24 hours, the ^212Pb-DOTAM was administered. Groups of mice were sacrificed at multiple time points from 5 minutes to 48 hours after the radioactive injection, and blood and organs harvested for radioactive measurement. Excrements were sampled at selected time points by use of metabolic cages to assess the excretion rate of the radioactive compound. Absorbed doses were finally calculated through established methods using the resulting time-activity curves.
Solid xenografts were established by s.c. injection of BxPC3 cells into SCID mice (Envigo) aged 8 weeks.
Mice in group E and F were individually housed (i.e. one mouse per cage) in grilled-floor metabolic cages. Urine and feces were collected from each cage 2, 6, and 24 hours after the radioactive injection, and the individual samples subsequently measured for radioactivity. Mice in group F were transferred to a regular cage 24 hours p.i.
Blood/serum was collected from all mice through retro-orbital bleeding before termination. After euthanasia, the following additional organs and tissues were harvested for radioactivity measurement and calculation of % ID/g: bladder, uterus, small intestine, colon, spleen, pancreas, kidneys, stomach, liver, lung, heart, brain, femoral bone, skin, muscle, abdominal fat, tail, and tumor.
Absorbed doses were calculated following the formalism outlined in Pamphlet No. 21 from the Medical Internal Radiation Dose (MIRD) Committee (Bolch W E, Eckerman K F, Sgouros G, and Thomas S R. J Nucl Med 2009; 50:477-484).
Formally, the absorbed dose D(rT) in a target tissue or region rT is calculated as the time-integral of the activity A(rS, t) multiplied by the absorbed dose rate per unit activity S(rT ←rS), summed over all source regions rS. Given that the vast majority of energy released by the ^212Pb decay chain comes from alpha radiation and furthermore by the much higher biological effectiveness of alpha radiation (as characterized by the relative biological effectiveness, RBE) two approximations were made: • 1. the energy is absorbed locally due to the short range of the alpha particles, which means that only the term S(rT←rT) is considered, and • 2. the contribution from beta and gamma radiation is neglected.
With Δα being the energy released by alpha decays, or rather the sum of the mean energies released by alpha decays in the decay chain of ^212Pb, here expressed in units J/(μCi·h), the absorbed dose in a target tissue or region rT is calculated by the formula: […]
The calculations are based on the composite (average) decay-corrected radioactive concentration at time t, expressed as [% ID/g]t. In a first step, these are transformed into radioactive concentrations as μCi per kg tissue weight for the target tissue rT:
A0[μCi]is the injected activity and λ is the exponential decay rate for ^212Pb, 0.0651 h^−1 (corresponding to the 10.6-hour half-life).
In a second step, the radioactive concentration was integrated over time for each tissue. This was achieved using the “Linear Log Trapezoidal calculation method” in the pharmacokinetic software Phoenix WinNonlin 6.4 (Certara USA, Inc., 100 Overlook Center, Suite 101, Princeton, NJ 08540 USA). The model type “Plasma” was used with uniform weighting.
In the final step, absorbed doses were calculated by multiplying the time integrals of the radioactive concentration by the energy release Δα=170·10^−6J/(μCi·h).

Another data set has as its system LS174T tumors. In words: Protocol 93b: efficacy and biodistribution of CEA-PRIT, LS174T model. The following applies: day 22; 30+30 μCi. The data set is classed as in vivo, mice. How it is done:
as §1, §2
For protocol 93b, mice (age 9 weeks) were injected s.c. into the right flank with 1×10^6 LS174T cells (passage 26) in 100 μL DMEM/Matrigel. Three days after tumor cell injection, mice were sorted into experimental groups with an average tumor volume of 150 mm^3.
as §3, §4, §5

`NC(=O)CN1CCN(CC(N)=O)CCN(CC(N)=O)CCN(CC(N)=O)CC1.[212Pb+2]` [^212Pb-DOTAM]: the “tumor growth inhibition (TGI) compared with PBS” value in the data set on BxPC3 tumors [1] came out at 15.8%. The “accumulation of radioactivity in tumor” value in the data set on BxPC3 tumors [2] (5 minutes after injection, pretargeted by CEA-DOTAM BsAb) is on record as 17 % ID/g. Moreover, the “Mean absorbed dose, RBE = 1” value in the data set on BxPC3 tumors [2] (Blood) is on record as 0.72 Gy; with BxPC3 tumors [2] (Brain) it was 0.04 Gy; in the data set on BxPC3 tumors [2] (Colon) it was 0.43 Gy; in the data set on BxPC3 tumors [2] (Femoral bone), 0.27 Gy; with BxPC3 tumors [2] (Heart) it was 0.33 Gy; with BxPC3 tumors [2] (Liver) it was 0.22 Gy. In addition, the “Mean absorbed dose, RBE = 1” value is recorded as 0.29 Gy with BxPC3 tumors [2] (Muscle); 0.36 Gy with BxPC3 tumors [2] (Pancreas); 0.47 Gy in the data set on BxPC3 tumors [2] (Skin); 0.22 Gy with BxPC3 tumors [2] (Small intestine); 0.27 Gy in the data set with BxPC3 tumors [2] (Spleen); 0.24 Gy in the data set on BxPC3 tumors [2] (Stomach). In addition, the “Mean absorbed dose, RBE = 1” value in the data set with BxPC3 tumors [2] (Tail) is given as 0.54 Gy; with BxPC3 tumors [2] (Uterus), 0.61 Gy. Besides, the “Mean absorbed dose, RBE = 5” value in the data set on BxPC3 tumors [2] (Blood) was 3.60 Gy; with BxPC3 tumors [2] (Brain) it was 0.19 Gy; in the data set on BxPC3 tumors [2] (Pancreas), 1.80 Gy; with BxPC3 tumors [2] (Serum), 8.20 Gy; in the data set on BxPC3 tumors [2] (Stomach), 1.20 Gy. The “TGI compared with PBS” value with LS174T tumors is 64.7%.

Values taken from US20260015436A1, “ANTIBODIES FOR CHELATED RADIONUCLIDES” (Hoffmann-La Roche Inc., priority 2018, published 2026).
